Laboratory results as given in patent US20080255206A1, “Rxr Agonists and Antagonists, Alone or in Combination with Ppar Ligands, in the Treatment of Metabolic and Cardiovascular Diseases” (priority 2005, published 2008).

What was measured:
[1] = system: human skin inflammation induced by topical 9-cis RA; assay: Therapeutic effect on 9-cis RA-induced human skin inflammation, clinical pilot trial; assay type: in vivo
Procedure: In the following pilot clinical trial on one healthy volunteer the compounds are applied epicutaneously. 9-cis RA being known for its skin inflammation potential is used in concentrations of 0.1%, 0.3% and 1%. Compound 15 (RXR antagonist) concentration is 1%. The compounds are solved in ethanol/propylene glycol (1:1). 9-cis RA is applied twice daily, 7 days a week, for two consecutive weeks. The site of application is an area of 3×3=9 cm^2 on the abdominal skin. The volume is 0.1 ml per administration. The treatment with compound 15, administered twice daily in a concentration of 1%, is started on day 15 when treatment with 9-cis RA is discontinued. This treatment lasts from day 15 to day 22. For a correct evaluation comparative areas with inflammation induced by 9-cis RA are treated with the vehicle, ethanol/propylene glycol, from day 15 to 22. The post-treatment period lasts until day 28.
The signs and symptoms of skin inflammation are recorded on a 0-4 scale, as described in example 21.
For evaluation of the anti-inflammatory effect of compound 15, the sum of the daily inflammation scores from day 15 to day 28 is determined, as well as the time to complete disappearance of skin inflammation from day 15 on.

[2] = system: healthy, non-inflamed human skin; assay: Topical application on healthy human skin, clinical pilot trial; assay type: in vivo; parameters: key to Skin inflammation score (scale 0-4): 0: no signs or symptoms of skin inflammation; 1: slight erythema, desquamation and pruritus; 2: moderate erythema, desquamation and pruritus; 3: marked erythema, desquamation, pruritus/burning; 4: severe erythema, desquamation, pruritus, burning or even pain, edema, exsudation, ulceration; conditions: for Skin inflammation score (scale 0-4): day 17; for Irritation or inflammation of the skin: human volunteer, 1% concentration daily to the skin for 2 weeks
Text: In a clinical pilot trial on one healthy volunteer compound 15 is applied epicutaneously in a concentration of 1% for its inflammation potential compared to that of the strong inflammation inducing agent 9-cis RA in concentrations of 0.1%, 0.3% and 1%.
The compounds are solved or suspended in ethanol/propylene glycol (1:1). They are applied epicutaneously twice daily, 7 days a week, for two concecutive weeks. The site of application is an area of 3×3=9 cm^2 on the abdominal skin. The volume is 0.1 ml per application.
The following signs and symptoms of skin inflammation are recorded: Erythema, desquamation (scaling), pruritus, burning, pain, exsudation, edema, ulceration. They are classified on a scale of: • 0=no signs or symptoms of skin inflammation • 1=slight erythema, desquamation and pruritus • 2=moderate erythema, desquamation and pruritus • 3=marked erythema, desquamation, pruritus/burning • 4=severe erythema, desquamation, pruritus, burning or even pain, edema, exsudation, ulceration
Treatment period lasts from day 1 to 14, the post-treatment observation period from day 15 to day 28.

skin of rats = assay: Topical administration to the skin of rats (irritation); assay type: in vivo; conditions: concentrations up to 2.5%
RARα = molecular target: T1, RARα (Homo sapiens, UniProt P10276); assay: Retinoid activation assay, RARα (COS-1 cells, SeAP reporter); assay type: cell-based; conditions: read-out: Activation EC50 RAR α
T1 sequence (P10276 183-417 limits assumed): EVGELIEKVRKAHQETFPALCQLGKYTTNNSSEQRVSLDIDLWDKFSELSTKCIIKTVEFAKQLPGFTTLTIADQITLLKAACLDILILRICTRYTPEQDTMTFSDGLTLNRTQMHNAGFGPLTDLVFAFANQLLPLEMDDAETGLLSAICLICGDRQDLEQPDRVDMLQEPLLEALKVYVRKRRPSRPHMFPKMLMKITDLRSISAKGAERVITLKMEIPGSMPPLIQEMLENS
Procedure: Chimeric RAR cDNAs are used for transfection which contain the DNA binding region of the estrogen receptor. As reporter system, the SeAp (secreted alkaline phosphatase) gene under control of the vitellogenin estrogen response element fused to the herpes simplex thymidinkinase promoter (vit-TK-SeAP) is used. The galactosidase expression vector pCH110 serves to correct for variation in transfection efficiency. […] At the end of the incubation, the cell supernatants are assayed for SeAP activity. Results are given as EC50 (nM), the concentration leading to half-maximal activation.

RXRβ = molecular target: T2, RXRβ (Homo sapiens, UniProt P28702); assay: Retinoid activation assay, RXRβ (Schneider SL-3 cells, luciferase reporter); assay type: cell-based; conditions: read-out: Activation EC50 RXR β
T2 construct: Full length RXR cDNA is used for transfection; expressed in transfected cells; host or cells: Schneider SL-3 cells (Drosophila)
T2 sequence (P28702 1-533): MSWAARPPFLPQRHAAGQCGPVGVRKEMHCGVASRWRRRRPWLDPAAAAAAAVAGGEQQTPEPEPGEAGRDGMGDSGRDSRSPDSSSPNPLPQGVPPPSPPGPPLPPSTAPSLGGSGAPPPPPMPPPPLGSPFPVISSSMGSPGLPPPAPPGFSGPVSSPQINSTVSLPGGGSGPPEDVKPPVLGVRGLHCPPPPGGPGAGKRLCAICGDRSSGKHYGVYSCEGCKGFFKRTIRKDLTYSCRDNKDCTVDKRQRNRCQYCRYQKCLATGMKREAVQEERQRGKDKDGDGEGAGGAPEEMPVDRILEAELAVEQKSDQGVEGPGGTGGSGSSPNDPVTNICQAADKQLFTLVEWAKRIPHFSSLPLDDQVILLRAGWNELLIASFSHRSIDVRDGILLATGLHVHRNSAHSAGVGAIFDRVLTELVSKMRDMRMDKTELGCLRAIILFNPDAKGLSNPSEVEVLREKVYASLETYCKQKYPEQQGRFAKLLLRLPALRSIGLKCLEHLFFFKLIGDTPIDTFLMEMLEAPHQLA
Procedure: Full length RXR cDNA is used for transfection. As reporter system, the luciferase gene is used in a construct with three copies of a RXR response element from rat CRBP gene, (formerly RARE from betaRAR gene), fused to alcoholdehydrogenase gene promoter in the plasmid pGL2-basic. Schneider SL-3 cells from Drosophila are transiently transfected 3-4 h before the experiment by the Ca-phosphate-DNA coprecipitation method. […] At the end of the incubation, the cell supernatants are assayed for luciferase activity. Results are given as EC50 (nM), the concentration leading to half-maximal activation.

[3] = 9-cis RA 0.1% day 1-14, followed by vehicle day 15-22
[4] = 9-cis RA 0.3% day 1-14, followed by vehicle day 15-22
[5] = 9-cis RA 1% day 1-14, followed by vehicle day 15-22
[6] = 9-cis RA 0.1% day 1-14, followed by compound 15 1% day 15-22
[7] = 9-cis RA 0.3% day 1-14, followed by compound 15 1% day 15-22
[8] = 9-cis RA 1% day 1-14, followed by compound 15 1% day 15-22

CC1=C(/C=C/C(C)=C\C=C\C(C)=C\C(=O)O)C(C)(C)CCC1 [9-cis RA, 9-cis retinoic acid, reference compound]
Sum of daily inflammation scores from day 15 to disappearance of inflammation [1, 3]: 6.5 | Time in days from day 15 to disappearance of inflammation [1, 3]: 8 days | Sum of daily inflammation scores from day 15 to disappearance of inflammation [1, 4]: 14 | Time in days from day 15 to disappearance of inflammation [1, 4]: 13 days | Sum of daily inflammation scores from day 15 to disappearance of inflammation [1, 5]: 14.5 | Time in days from day 15 to disappearance of inflammation [1, 5]: 9 days | Skin inflammation score (scale 0-4) ([2]; 0.1% epicutaneously twice daily day 1-14): 1 | Skin inflammation (in words) ([2]; 0.1% epicutaneously twice daily, days 12, 13 and 14): moderate inflammation | Skin inflammation score (scale 0-4) ([2]; 0.3% epicutaneously twice daily day 1-14): 2 | Skin inflammation (in words) ([2]; 0.3% epicutaneously twice daily, days 12, 13 and 14): moderate inflammation | Skin inflammation score (scale 0-4) ([2]; 1% epicutaneously twice daily day 1-14): 3 | Skin inflammation (in words) ([2]; 1.0% epicutaneously twice daily, days 12, 13 and 14): marked inflammation

CC1=C(/C=C/C2=C(/C=C/C(C)=C/C(=O)O)CCCCC2)C(C)(C)CCC1 [Compound 1, (2E,4E)-3-methyl-5-[2-[(E)-2-(2,6,6-trimethyl-1-cyclohexen-1-yl)ethenyl]-1-cyclohepten-1-yl]-2,4-pentadienoic acid]
Irritation or inflammation of the skin (skin of rats): does not lead to irritation or inflammation of the skin | Irritation or inflammation of the skin [2]: does not induce any irritation or inflammation of the skin

CC1=C(/C=C/c2sccc2/C=C/C(C)=C/C(=O)O)C(C)(C)CCC1 [Compound 5, (2E,4E)-3-Methyl-5-[2-[(E)-2-(2,6,6-trimethyl-1-cyclohexen-1-yl)ethenyl]-3-thienyl]-2,4-pentadienoic acid]
EC50 (RARα): 170 nM | EC50 (RXRβ): 50 nM

CC(/C=C/C1=C(c2ccc3c(c2)C(C)(C)CCC3(C)C)CCCC1)=C\C(=O)O [Compound 6, (2E,4E)-3-Methyl-5-[2-(5,5,8,8-tetramethyl-5,6,7,8-tetrahydro-naphthalen-2-yl)-cyclohex-1-enyl]-penta-2,4-dienoic acid]
EC50 (RXRβ): 1850 nM

CC(/C=C/c1ccccc1-c1ccc2c(c1)C(C)(C)CCC2(C)C)=C\C(=O)O [Compound 7, (2E,4E)-3-methyl-5-[2-(5,5,8,8-tetramethyl-5,6,7,8-tetrahydro-naphthalen-2-yl)-phenyl]-penta-2,4-dienoic acid]
EC50 (RXRβ): 330 nM

CC(/C=C/c1sccc1-c1ccc2c(c1)C(C)(C)CCC2(C)C)=C\C(=O)O [Compound 9]
EC50 (RARα): 2300 nM

CC(/C=C/C1=C(c2ccc3c(c2)C(C)(C)CCC3(C)C)CCC1)=C\C(=O)O [Compound 12, (2E,4E)-3-Methyl-5-[2-(5,5,8,8-tetramethyl-5,6,7,8-tetrahydro-naphthalen-2-yl)-cyclopent-1-enyl]-penta-2,4-dienoic acid]
EC50 (RARα): 370 nM | EC50 (RXRβ): 60 nM

C/C(=C/C=C/C(C)=C/C(=O)O)c1cc2c(cc1C)C(C)(C)CCCC2 [Compound 13, (2E,4E,6Z)-3-Methyl-7-(3,5,5,-trimethyl-6,7,8,9-tetrahydro-5H-benzocyclohepten-2-yl)-octa-2,4,6-trienoic acid]
EC50 (RXRβ): 77 nM

CC1=C(/C=C/C2=C(/C=C/C(C)=C/C(=O)O)CCC2)C(C)(C)CCC1 [Compound 14, (2E,4E)-3-Methyl-5-[2-[(E)-2-(2,6,6-trimethyl-1-cyclohexen-1-yl)ethenyl]-1-cyclopenten-1-yl]-2,4-pentadienoic acid]
EC50 (RARα): 150 nM | EC50 (RXRβ): 270 nM

CCCCOc1c(\C(C)=C/C=C/C(C)=C/C(=O)O)cc(C(C)(C)C)cc1C(C)(C)C [Compound 15, (2E,4E,6Z)-7-[2-butoxy-3,5-bis(1,1-dimethylethyl)phenyl]-3-methyl-2,4,6-octatrienoic acid]
Irritation or inflammation of the skin (skin of rats): does not lead to irritation or inflammation of the skin | Sum of daily inflammation scores from day 15 to disappearance of inflammation [1, 6]: 2.5 | Time in days from day 15 to disappearance of inflammation [1, 6]: 3 days | Sum of daily inflammation scores from day 15 to disappearance of inflammation [1, 7]: 5.5 | Time in days from day 15 to disappearance of inflammation [1, 7]: 6 days | Sum of daily inflammation scores from day 15 to disappearance of inflammation [1, 8]: 11 | Time in days from day 15 to disappearance of inflammation [1, 8]: 8 days | Skin inflammation (in words) ([2]; 1% epicutaneously twice daily day 1-14, observation to day 28): well tolerated with no skin inflammation | Skin inflammation (in words) ([2]; 1% epicutaneously twice daily day 1-14, observation to day 28, listed as Compound A): does not induce any objective or subjective symptoms | Irritation or inflammation of the skin [2]: does not induce any irritation or inflammation of the skin

CC1=C(C#CC2=C(/C=C/C(C)=C/C(=O)O)CCCCC2)C(C)(C)CCC1 [Compound 18]
EC50 (RXRβ): ≥ 10000 nM

CCC1(CC)CCC(C)(C)c2cc(\C(C)=C/C=C/C(C)=C/C(=O)O)ccc21 [Compound 24, (2E,4E,6Z)-7-(5,5-Diethyl-8,8-dimethyl-5,6,7,8-tetrahydro-naphthalen-2-yl)-3-methyl-octa-2,4,6-trienoic acid]
EC50 (RARα): 54 nM | EC50 (RXRβ): ≥ 10000 nM
